Measurements taken from patent publication US12053506B2, “Romo1-derived antimicrobial peptides and variants thereof” (priority 2019, dated 2024).
Like-named read-outs stand apart in the source and are kept apart here. No end group written: not given here.

Key:
[1] = test system: methicillin-resistant Staphylococcus aureus (ATCC 33591); settings: for MBC MRSA: Tables 11-15, no unit printed
[2] = test system: Staphylococcus aureus (ATCC 29213); type: cell-based
In short: (§1)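 Bacteria grown in 3% TSB at 37° C, diluted in 10 mM sodium phosphate/1% TSB to 1×10^5 CFU/ml in wells, exposed to peptides (0–300 μg/ml) for 1 h at 37° C. Mixtures plated on TS agar for 18 h at 37° C; MBC is the lowest concentration giving no colonies.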

[3] = test system: Pseudomonas aeruginosa (ATCC 27853); type: cell-based
In short: as §1

[4] = test system: Staphylococcus aureus, Pseudomonas aeruginosa, methicillin-resistant Staphylococcus aureus and multidrug-resistant Pseudomonas aeruginosa; assay: Bacteria remaining in the blood of intravenously infected mice; type: in vivo, mice (C57BL/6); settings: 10 mg/kg intravenous 1 hour after infection; blood collected 40 minutes after injection; compared with LL-37, magainin 2, daptomycin
Protocol: Specifically, Staphylococcus aureus, Pseudomonas aeruginosa, methicillin-resistant Staphylococcus aureus and multidrug-resistant Pseudomonas aeruginosa was cultured in 3% (w/v) TSB liquid medium at 37° C. and 200 rpm for 4 hours, and then further cultured under the same conditions for 3 hours to a concentration of 5×10^9 CFU/ml. Strain solutions were prepared by diluting each of the further cultured strains with PBS solution to a final concentration of 1×10^5 CFU/μl.
Next, 100 μl of each strain solution was injected intravenously (IV) into the tail vein of each of 10-week-old male mice (C57BL/6). After one hour, KU-5878 was intravenously injected at a concentration of 10 mg/kg. As a control, PBS was intravenously injected at a concentration of 10 mg/kg, and as a positive control, LL-37, magainin 2, or daptomycin was intravenously injected at a concentration of 10 mg/kg.
40 minutes after the intravenous injection of each drug, about 1 cm from the tail end of each mouse was cut using surgical scissors, and 10 μl of the blood at the end of the cut was collected and diluted in PBS. The diluted blood sample was plated on a previously prepared TSB agar plate and incubated in an incubator at 37° C. for 18 hours, and the formed colonies were counted for comparison.

KTMMQSGGTFGTFMAIGMGIR [KU-5878]
MBC value (μg/ml) against methicillin-resistant Staphylococcus aureus ([1]; ATCC 33591, 4 h): 100 µg/mL | MBC MRSA [1]: 110 µg/mL | MBC MRSA ([1]; listed as 5878): 100 µg/mL | MBC (μg/ml) value against Staphylococcus aureus ([2]; ATCC 29213): 100 µg/mL | MBC value (μg/ml) against Staphylococcus aureus ([2]; ATCC 29213, 1 h): 100 µg/mL | MBC Staphylococcus aureus ([2]; Tables 11-15, no unit printed): 100 µg/mL | MBC (μg/ml) value against Pseudomonas aeruginosa ([3]; ATCC 27853): 100 µg/mL | MBC value (μg/ml) against Pseudomonas aeruginosa ([3]; ATCC 27853, 1 h): 100 µg/mL | MBC Pseudomonas aeruginosa ([3]; Tables 11-15, no unit printed): 100 µg/mL | number of bacteria remaining in the blood vessels of the mice [4]: most greatly decreased
